Data as given in patent US6100239A, “13-membered ring macrolide compound, medicine containing the same, and process for producing the same” (Chugai Seiyaku Kabushiki Kaisha, priority 1996, dated 2000).

Biological target: T1, Motilin receptor (Oryctolagus cuniculus, UniProt G1T803)
T1 construct: homogenized in a 50 mM Tris solution (pH 7.4) to prepare a protein solution; from tissue; host or cells: rabbit duodenum (mucous membrane detached from the tunica muscularis, then homogenized)
Experiment: Motilin receptor binding test (125I-labeled motilin)
Settings: rabbit duodenum tunica muscularis homogenate; 25 pM 125I-labeled motilin; 25° C., 120 minutes; test drug in DMSO (final 1%); read-out: IC50, the concentration of the test drug which reduces the specific binding capacity to 50%
Experimental: Motilin receptor binding test was carried out by the method shown below (see V. Bormans, et al., Regul, Peptides, 15, 143 (1986)). From a slaughtered rabbit was removed the duodenum, of which the mucous membrane was detached from the tunica muscularis and then homogenized in a 50 mM Tris solution (pH 7.4) to prepare a protein solution. After incubating 25 pM ^125 I-labeled motilin (available from Otsuka Assay Laboratory) and the protein solution at 25° C. for 120 minutes, radioactivity in the protein solution was measured with a γ-ray counter. The difference between the radioactivity observed in the case of non-addition of motilin and that observed in the case of addition of an excess (1×10^-7 M) of motilin was defined as the specific binding capacity. The efficacy of the sample was expressed as IC50, the concentration of the test drug which reduces the specific binding capacity to 50%. The test drug was dissolved in a DMSO solution and added to the protein solution (the final DMSO concentration: 1%).

T1 sequence (G1T803 1-400): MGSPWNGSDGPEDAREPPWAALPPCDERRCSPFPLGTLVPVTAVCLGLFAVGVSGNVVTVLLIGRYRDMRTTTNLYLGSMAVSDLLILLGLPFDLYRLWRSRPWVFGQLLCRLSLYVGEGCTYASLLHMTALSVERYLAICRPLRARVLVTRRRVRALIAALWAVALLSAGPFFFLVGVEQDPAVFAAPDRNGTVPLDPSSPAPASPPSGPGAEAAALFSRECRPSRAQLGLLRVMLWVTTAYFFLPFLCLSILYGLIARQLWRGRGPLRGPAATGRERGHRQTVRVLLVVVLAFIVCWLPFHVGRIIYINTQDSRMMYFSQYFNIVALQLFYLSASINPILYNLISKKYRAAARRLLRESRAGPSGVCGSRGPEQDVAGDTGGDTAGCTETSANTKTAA

COC1(C)CC(OC2C(C)C(=O)OC(C)C(=O)C(C)C3=C(C)CC(C)(O3)C(OC3OC(C)CC(N(C)C)C3O)C2C)OC(C)C1O (stereo not shown) [Compound 4]
IC50: 5.7 nM
